Values after ≈ are worked out from the molar mass of the structure shown. Peptide text beside a SMILES is read from it.

The text below walks through data of paper PMC12164026, “Plant-derived nodule-specific cysteine-rich peptides as potent antifungal agents against Cryptococcus neoformans: mechanisms of action, chimeric peptide enhancement, and immunomodulatory effects” (Current Research in Microbial Sciences, 2025).

Assay [1] deals with Cryptococcus neoformans IFM 5844. In kind it is cell-based. To be noted: IFM 5844, 48 h. The method, then: The susceptibility of Cryptococcus neoformans IFM 5844 to 20 peptides (Supplementary Table 1) was tested in a widely used synthetic medium to cultivate yeasts (YNB) and in a serum-free medium what is able to support the proliferation of macrophage cells (X-VIVO).
X-VIVO medium: half-diluted X-VIVO™ 15 cell culture medium (Lonza, Verviers, Belgium).
The minimal inhibitory concentration (MIC) of each peptide was determined by using micro-dilution assay. The C. neoformans suspensions were adjusted to 5 × 10^4 cells/mL concentration in either YNB or X-VIVO medium. A 96-well microtiter plate was prepared by adding 95 µL suspension per well followed by 5 µL of serially two-fold diluted peptide solutions achieving a final volume of 100 µl. The concentration of the peptides ranged from 25 to 0.39 µM. For control samples, 5 µL pure medium was added to the yeast cell suspension instead of peptides. Plates were incubated at 37 °C for 48 h in X-VIVO medium and 30 °C for 72 h in YNB medium. After incubation, optical density was measured at 620 nm using a SPECTROstar Nano plate reader (BMG LabTech, Offenburg, Germany). […] The experiments were carried out in three independent biological replicates.

For assay [2], the system named is C. neoformans IFM 5844 cells. The assay can be described thus: Cell membrane permeability, calcein-AM assay by flow cytometry. Particulars: half-MIC, 2 h, 30 °C, YNB. In kind it is cell-based, Cryptococcus neoformans. How it is done: The effect of the peptides on the cell membrane permeability of C. neoformans IFM 5844 cells was checked by flow cytometry with calcein-AM assay ([Olson, et al., 2001]). Calcein-acetoxymethyl ester (calcein-AM) is a membrane-permeable live-cell dye that, upon entering the cell, is cleaved by intracellular esterases, converting it into calcein, a membrane-impermeable fluorescent marker. The assay was carried out by suspending a total of 1 × 10^7 cells in 100 µl YNB medium containing 20 µg/mL indomethacin (Sigma-Aldrich, Saint Louis, MO, USA) and incubating them at 30 °C for 30 min to inhibit calcein transporters. Following this pre-treatment, membrane-permeable calcein-AM (Invitrogen, Waltham, MA, USA) was added to a final concentration of 5 µg/mL, and the samples were incubated at 30 °C for 3 h allowing the calcein-AM to enter the cells where esterases converted it to fluorescent calcein. After incubation, cells were washed twice with sterile distilled water and subsequently exposed to peptides at half-MIC concentrations in YNB medium for 2 h at 30 °C. Following peptide treatment, cells were washed twice with sterile distilled water, and fluorescence intensity was measured using a FlowSight® flow cytometer (Amnis-EMD Millipore) equipped with a 488-nm excitation laser. Intact cells stained with calcein-AM but not exposed to peptides served as controls. To ensure statistical reliability, four independent experiments were conducted, and fluorescence intensity was recorded from 10,000 cells per sample during each experiment.

Assay [3] has as its system C. neoformans IFM 5844 intact cells. The assay can be described thus: Susceptibility of intact cells to peptide, CFU counts. In kind it is cell-based, Cryptococcus neoformans. Particulars: 30 min, YNB + 0.8 M sorbitol. How it is done: The C. neoformans IFM 5844 strain was grown in YPD nutrient solution at 30 °C for 12 h by vigorous shaking until the exponential phase was reached (about 5 × 10^7 cells/mL).
To assess peptide susceptibility, 2 × 10^6 protoplasts and the same number of intact cells were treated separately with X1-NCR247C peptide at 0.78 or 0.39 µM in YNB supplemented with 0.8 M sorbitol for 30 min at 30 °C. […] Fifty microliters from each dilution were mixed into 2 mL of top-agar (0.8 M sorbitol with 1 % agar) and spread onto the surface of YPD solid medium supplemented with 0.8 M sorbitol. Plates were incubated for 3 days at 30 °C, after which colony forming units were counted to determine the survival rate of peptide-treated cells and protoplasts.

The test system of the next assay is C. neoformans cells. The experiment in a line: Effect of X1-NCR247C and calcofluor white on CFU. The assay is classed as cell-based, Cryptococcus neoformans. The method, then: To assess the effect of X1-NCR247C peptide and calcofluor white, C. neoformans cells were subjected to different treatments. […] For staining, cells were treated with calcofluor white at 2.5 µg/mL for the same duration. As a control, cells were incubated only with calcofluor white for 20 min.
For combined treatment, cells were first exposed to calcofluor white (2.5 µg/mL) for 5 min, followed by the addition of X1-NCR247C (0.39 µM), and the incubation continued for 15 additional minutes. Following treatment, cells were washed once with sterile distilled water to remove residual peptide and dye. Serial 10-, 100-, 1000-, and 10,000-fold dilutions were prepared, and 50 µL from each dilution was plated onto solid YPD medium in triplicate. After 48 h of incubation at 30 °C, colony-forming units were counted to determine cell viability under each condition.

The test system of another assay is J774.2 mouse macrophages. The assay can be described thus: Phagocytosis of peptide-treated C. neoformans cells by macrophages, imaging flow cytometry. The assay is classed as cell-based. To be noted: yeast cells pre-treated with 3.12 µM peptide for 15 min, 5:1 yeast-to-macrophage ratio. The method, then: C. neoformans was cultivated for 16 h at 30 °C, collected by centrifugation (5000 g, 5 min), and washed twice with sterile distilled water and once with PBS. […] After 15 min of incubation at 30 °C, the peptide-containing solution was removed by centrifugation, and the C. neoformans cells were washed with PBS and re-suspended in 100 µL PBS. Untreated C. neoformans cells served as controls.
To label C. neoformans cells, the suspension was supplemented with 11 µL of 1 M Na₂CO₃ (pH 10) and 2 µL of Alexa Fluor 488-labelled-concanavalin (Invitrogen, Waltham, MA, US), followed by incubation at room temperature for 30 min, protected from light. After PBS washing, the cell density was determined using a Bürker chamber and adjusted to the required concentration. […]
Following incubation, cells from each technical replicate were collected by centrifugation (200 g, 10 min), washed once with PBS, and re-suspended in 100 µL PBS buffer for detection. A random selection of 1000 macrophages was evaluated in each experimental sample, and the proportion of macrophages harboring fluorescently labelled C. neoformans cells was quantified utilizing imaging flow cytometry (FlowSight®, Amnis-EMD Millipore) equipped with a 488-nm excitation laser, with data analysis conducted through the IDEAS software platform.

In the case of `CSCC[C@H](NC(=O)[C@H](CCCCN)NC(=O)[C@H](Cc1ccccc1)NC(=O)[C@H](CC(N)=O)NC(=O)[C@H](CC(C)C)NC(=O)[C@@H]1CCCN1C(=O)[C@@H](N)CCCNC(=N)N)C(=O)N[C@@H](CC(C)C)C(=O)N[C@@H](CCCNC(=N)N)C(=O)N[C@@H](Cc1ccccc1)C(=O)N[C@@H](Cc1c[nH]c2ccccc12)C(=O)NCC(=O)N[C@@H](CCC(N)=O)C(=O)N[C@@H](CCC(N)=O)C(=O)N[C@@H](CCC(N)=O)C(=O)N[C@@H](CS)C(=O)N[C@@H](CCCNC(=N)N)C(=O)N[C@@H](CCCNC(=N)N)C(=O)N1CCC[C@H]1C(=O)N[C@@H](CC(C)C)C(=O)N[C@@H](Cc1ccc(O)cc1)C(=O)N[C@@H](CS)C(=O)N[C@@H](CCCNC(=N)N)C(=O)N[C@@H](CCCNC(=N)N)C(=O)N[C@@H](CCCNC(=N)N)C(N)=O` [X1-NCR247C] (H-RPLNFKMLRFWGQQQCRRPLYCRRR-NH2; N-terminus assumed), the minimum inhibitory concentration (MIC) (as a rule, the lowest concentration found to suppress growth) in assay [1] is given as 3.12 µM (≈ 10.3 µg/mL). The “calcein leakage / membrane permeability disruption” value in assay [2] was “slightly weaker effect”. The “CFU count reduction relative to untreated control” value was determined as 97% in assay [3] (0.39 µM) and 99% in assay [3] (0.78 µM). The “effect on CFU counts” value in the assay with C. neoformans cells (calcofluor white (2.5 µg/mL) pre-treatment 5 min, then peptide 0.39 µM for 15 min) is “no reduction in the number of colony-forming units was observed”; in the assay with C. neoformans cells (peptide 0.39 µM (MIC) alone, 20 min, YNB, p ≤ 0.0001), “significantly decrease cell viability”. Besides, the “percentage of phagocytic macrophages” value is listed as 7.95% with J774.2 mouse macrophages (30 min post-infection, untreated control 5.12 %) and 33.95% in the assay with J774.2 mouse macrophages (60 min post-infection, untreated control 6.95 %).
